Laboratory results from ChEMBL document CHEMBL1141727, “Isolation and cytotoxic evaluation of marine sponge-derived norterpene peroxides” (J Nat Prod, 1998).

Tests used:
CCRF-CEM = experiment: Growth inhibition of human CCRF-CEM cells; assay type: functional
HL-60(TB) = experiment: Growth inhibition of human HL-60(TB) cells; assay type: functional
K562 = experiment: Growth inhibition of human K562 cells; assay type: functional
MOLT-4 = experiment: Growth inhibition of human MOLT4 cells; assay type: functional
[1] = Growth inhibition of human […] cells; assay type: functional
SR = experiment: Growth inhibition of human SR cells; assay type: functional
A549 = experiment: Growth inhibition of human A549 cells; assay type: functional
EKVX = experiment: Growth inhibition of human EKVX cells; assay type: functional
HOP-62 = experiment: Growth inhibition of human HOP62 cells; assay type: functional
HOP-92 = experiment: Growth inhibition of human HOP92 cells; assay type: functional
NCI-H23 = experiment: Growth inhibition of human NCI-H23 cells; assay type: functional
NCI-H322M = experiment: Growth inhibition of human NCI-H322M cells; assay type: functional
NCI-H460 = experiment: Growth inhibition of human NCI-H460 cells; assay type: functional
NCI-H522 = experiment: Growth inhibition of human NCI-H522 cells; assay type: functional
COLO 205 = experiment: Growth inhibition of human COLO205 cells; assay type: functional
HCC 2998 = experiment: Growth inhibition of human HCC2998 cells; assay type: functional
HCT-116 = experiment: Growth inhibition of human HCT116 cells; assay type: functional
HCT-15 = experiment: Growth inhibition of human HCT15 cells; assay type: functional
HT-29 = experiment: Growth inhibition of human HT-29 cells; assay type: functional
KM12 = experiment: Growth inhibition of human KM12 cells; assay type: functional
SW-620 = experiment: Growth inhibition of human SW620 cells; assay type: functional
SF-268 = experiment: Growth inhibition of human SF268 cells; assay type: functional
SF-295 = experiment: Growth inhibition of human SF295 cells; assay type: functional
SF-539 = experiment: Growth inhibition of human SF539 cells; assay type: functional
SNB-19 = experiment: Growth inhibition of human SNB19 cells; assay type: functional
SNB-75 = experiment: Growth inhibition of human SNB75 cells; assay type: functional
U-251 = experiment: Growth inhibition of human U251 cells; assay type: functional
LOX IMVI = experiment: Growth inhibition of human LOXIMVI cells; assay type: functional
Malme-3M = experiment: Growth inhibition of human MALME-3M cells; assay type: functional
M14 = experiment: Growth inhibition of human M14 cells; assay type: functional
SK-MEL-2 = experiment: Growth inhibition of human SK-MEL-2 cells; assay type: functional
SK-MEL-28 = experiment: Growth inhibition of human SK-MEL-28 cells; assay type: functional
SK-MEL-5 = experiment: Growth inhibition of human SK-MEL-5 cells; assay type: functional
UACC-257 = experiment: Growth inhibition of human UACC257 cells; assay type: functional
UACC-62 = experiment: Growth inhibition of human UACC62 cells; assay type: functional
IGROV-1 = experiment: Growth inhibition of human IGROV1 cells; assay type: functional
OVCAR-3 = experiment: Growth inhibition of human OVCAR-3 cells; assay type: functional
OVCAR-4 = experiment: Growth inhibition of human OVCAR4 cells; assay type: functional
OVCAR-5 = experiment: Growth inhibition of human OVCAR5 cells; assay type: functional
OVCAR-8 = experiment: Growth inhibition of human OVCAR8 cells; assay type: functional
SK-OV-3 = experiment: Growth inhibition of human SKOV3 cells; assay type: functional
786-0 = experiment: Growth inhibition of human 786-0 cells; assay type: functional
ACHN = experiment: Growth inhibition of human ACHN cells; assay type: functional
CAKI-1 = experiment: Growth inhibition of human Caki1 cells; assay type: functional
RXF 393 = experiment: Growth inhibition of human […] cells; assay type: functional
SN12C = experiment: Growth inhibition of human SN12C cells; assay type: functional
TK-10 = experiment: Growth inhibition of human TK10 cells; assay type: functional
UO-31 = experiment: Growth inhibition of human UO31 cells; assay type: functional
PC-3 = experiment: Growth inhibition of human PC3 cells; assay type: functional
DU-145 = experiment: Growth inhibition of human DU145 cells; assay type: functional
MCF7 = experiment: Growth inhibition of human MCF7 cells; assay type: functional
[2] = Growth inhibition of human MCF7/ADR resistant cells; assay type: functional; conditions: NCI/ADR-RES
MDA-MB-231 = experiment: Growth inhibition of human MDA-MB-231 cells; assay type: functional
[3] = Growth inhibition of human Hs 578T cells; assay type: functional
MDA-MB-435 = experiment: Growth inhibition of human MDA-MB-435 cells; assay type: functional
MDA-N = experiment: Growth inhibition of human MDA-N cells; assay type: functional
BT-549 = experiment: Growth inhibition of human BT549 cells; assay type: functional
T47D = experiment: Growth inhibition of human T47D cells; assay type: functional
L1210 = experiment: Growth inhibition of mouse L1210 cells assessed as zone units at 50 ug/disk by disk diffusion agar colony formation assay; assay type: functional
P388 = experiment: Growth inhibition of mouse P388 cells assessed as zone units at 50 ug/disk by disk diffusion agar colony formation assay; assay type: functional
MC-38 = experiment: Growth inhibition of mouse C38 cells assessed as zone units at 50 ug/disk by disk diffusion agar colony formation assay; assay type: functional
[4] = Growth inhibition of mouse M17/ADR cells assessed as zone units at 50 ug/disk by disk diffusion agar colony formation assay; assay type: functional
CX-1 = experiment: Growth inhibition of human CX-1 cells assessed as zone units at 50 ug/disk by disk diffusion agar colony formation assay; assay type: functional
Mus musculus = experiment: Toxicity in mouse at 424 mg/kg, iv in split dose; assay type: organism-based; parameters: dose 424 mg/kg, route intravenous; conditions: in vivo

COC(=O)[C@H](C)[C@H]1CC[C@@](C)(CCC2=C(C)CCCC2(C)C)OO1 [NUAPAPUIN A METHYL ESTER]
GI50 (CCRF-CEM): 19.4 µM
GI50 (HL-60(TB)): > 5 µM
GI50 (K562): 14.3 µM
GI50 (MOLT-4): > 5 µM
GI50 [1]: > 25 µM
GI50 (SR): > 25 µM
GI50 (A549): > 5 µM
GI50 (EKVX): > 25 µM
GI50 (HOP-62): > 25 µM
GI50 (HOP-92): > 25 µM
GI50 (NCI-H23): > 25 µM
GI50 (NCI-H322M): > 25 µM
GI50 (NCI-H460): > 25 µM
GI50 (NCI-H522): > 16.1 µM
GI50 (COLO 205): > 25 µM
GI50 (HCC 2998): > 25 µM
GI50 (HCT-116): > 25 µM
GI50 (HCT-15): > 25 µM
GI50 (HT-29): > 25 µM
GI50 (KM12): > 5 µM
GI50 (SW-620): > 25 µM
GI50 (SF-268): > 25 µM
GI50 (SF-295): > 25 µM
GI50 (SF-539): > 25 µM
GI50 (SNB-19): > 25 µM
GI50 (SNB-75): > 25 µM
GI50 (U-251): > 25 µM
GI50 (LOX IMVI): > 5 µM
GI50 (Malme-3M): > 25 µM
GI50 (M14): > 25 µM
GI50 (SK-MEL-2): > 25 µM
GI50 (SK-MEL-28): > 25 µM
GI50 (SK-MEL-5): > 25 µM
GI50 (UACC-257): > 25 µM
GI50 (UACC-62): > 25 µM
GI50 (IGROV-1): > 5 µM
GI50 (OVCAR-3): > 25 µM
GI50 (OVCAR-4): > 25 µM
GI50 (OVCAR-5): > 25 µM
GI50 (OVCAR-8): > 25 µM
GI50 (SK-OV-3): > 25 µM
GI50 (786-0): > 25 µM
GI50 (ACHN): 25 µM
GI50 (CAKI-1): > 25 µM
GI50 (RXF 393): > 25 µM
GI50 (SN12C): > 25 µM
GI50 (TK-10): > 25 µM
GI50 (UO-31): > 23.7 µM
GI50 (PC-3): > 25 µM
GI50 (DU-145): > 25 µM
GI50 (MCF7): > 25 µM
GI50 [2]: > 25 µM
GI50 (MDA-MB-231): > 25 µM
GI50 [3]: > 25 µM
GI50 (MDA-MB-435): > 25 µM
GI50 (MDA-N): > 25 µM
GI50 (BT-549): > 5 µM
GI50 (T47D): > 25 µM
Activity (L1210): 400 Zone units
Activity (P388): 400 Zone units
Activity (MC-38): 700 Zone units
Activity [4]: 400 Zone units
Activity (CX-1): 310 Zone units
Activity (Mus musculus): Non-toxic
